In patent US11807644B2 (PMV Pharmaceuticals, Inc., priority 2020, dated 2023):

These compounds were tested against T1, recombinant His-tag Y220C p53 DBD protein (Homo sapiens, UniProt P04637, Y220C) (assay: In vitro DNA binding activity assay (TR-FRET): binding of His-tag Y220C p53 DBD to biotin-labeled consensus DNA). Conditions: SC150 = concentration to increase DNA binding by […], His-tag Y220C p53 DBD, biotin-labeled consensus DNA.
T1 construct: recombinant His-tag Y220C p53 DBD protein (amino acids #˜94-312)
Format: biochemical
Description: DNA binding activity of the compounds was measured using a TR-FRET (Time-Resolved Fluorescence Resonance Energy Transfer) assay in which recombinant His-tag Y220C p53 DBD protein binds to biotin-labeled consensus DNA. Binding of recombinant His-tag Y220C p53 DBD protein and biotin-labeled consensus DNA was registered by the FRET (fluorescence resonance energy transfer) between allophycocyanin (APC) conjugated anti-His tag antibody and Europium-(Eu) conjugated Streptavidin.
The compounds of TABLES 1-9 (2 mM stock in dimethylsulfoxide) were diluted 3-fold in series in dimethylsulfoxide. 1.2 μL of a compound solution was added to each well of 384-well polypropylene black plates (NUNC). Thirty μL per well of 181 nM recombinant His-tag Y220C p53 DBD protein (amino acids #˜94-312; SEQ ID NO: 1) and 6.1 nM of APC conjugated anti-His tag antibody (Columbia Biosciences) in ice-cold Assay Buffer 1 (50 mM Tris-HCl, pH 7.4, 75 mM KCl, 0.75 mM DTT and 0.2 mg/ml, BSA) were added. As a background control. 30 μL of Assay Buffer 1 containing 6.1 nM of APC anti-His antibody (No Y220C protein) was also added into a second set of serially diluted compound plates. The samples were spun by centrifuge at 1,200 rpm (Eppendorf 5810R Plate centrifuge) for 1 minute and incubated at room temperature (20° C.) for 15 min. The samples were then further incubated at either 27° C. or 29° C. for 60 min. […] The samples were spun by centrifuge at 1,200 rpm for 1 min and incubated at room temperature (20° C.) for 20 min. Assay signals were monitored by reading excitation at 340 nm, and emission fluorescence at 615 nm and 665 nm on an Envision® reader. Normalized TR-FRET (time-resolved fluorescence resonance energy transfer) assay signal (Rn) was calculated by the formula: Rn=[(A−Ba−C×(D−Bd))/(D−Bd)]×(D−Bd) Wherein: • A is the fluorescence intensity of the sample at 665 nm; • D is the fluorescence intensity of the sample at 615 nm; • Ba and Bd are plate backgrounds at 665 nm and 615 nm, respectively; and • Dc is the fluorescence intensity of 0.67 nM Eu-SA in the assay buffer at 615 nm.
The cross-talk factor (C) was determined by the following formula: C=(Ac−Ba)/(Dc−Bd) wherein Ac is the fluorescence intensity of 0.67 nM Europium (Eu) conjugated Streptavidin in the assay buffer at 665 nm.
In the case of `CN1CC[C@H](Nc2cccc3c2cc(-c2nnc(CNC(=O)c4ccccc4)o2)n3CC(F)(F)F)[C@H](F)C1` (racemic) [Compound 118B, (+/−)-N-{[5-(4-{[(3R,4S)-3-fluoro-1-methylpiperidin-4-yl]amino}-1-(2,2,2-trifluoroethyl)-1H-indol-2-yl)-1,3,4-oxadiazol-2-yl]methyl}benzamide], the “Y220C SC150 (μM)” value is reported as “** (** = 0.1 μM ≤ SC150 < 0.5 μM)”. With `COc1cccc(C(=O)NCc2nnc(-c3cc4c(N[C@H]5CCN(C)C[C@H]5F)cccc4n3CC(F)(F)F)o2)c1` (racemic) [Compound 119B, (+/−)-N-{[5-(4-{[(3R,4S)-3-fluoro-1-methylpiperidin-4-yl]amino}-1-(2,2,2-trifluoroethyl)-1H-indol-2-yl)-1,3,4-oxadiazol-2-yl]methyl}-3-methoxybenzamide] the “Y220C SC150 (μM)” value was “** (** = 0.1 μM ≤ SC150 < 0.5 μM)”. `CN1CC[C@H](Nc2cccc3c2cc(-c2nnc(CNC(=O)c4cccs4)o2)n3CC(F)(F)F)[C@H](F)C1` (racemic) [Compound 120B, (+/−)-N-{[5-(4-{[(3R, 4S)-3-fluoro-1-methylpiperidin-4-yl]amino}-1-(2,2,2-trifluoroethyl)-1H-indol-2-yl)-1,3,4-oxadiazol-2-yl]methyl}thiophene-2-carboxamide] was tested, and the “Y220C SC150 (μM)” value was “** (** = 0.1 μM ≤ SC150 < 0.5 μM)”. With `CN1CC[C@H](Nc2cccc3c2cc(-c2nnc(CNCC4CC4)o2)n3CC(F)(F)F)[C@H](F)C1` (racemic) [Compound 121B, (+/−)-2-(5-{[(cyclopropylmethyl)amino]methyl}-1,3,4-oxadiazol-2-yl)-N-[(3R,4S)-3-fluoro-1-methylpiperidin-4-yl]-1-(2,2,2-trifluoroethyl)-1H-indol-4-amine] the “Y220C SC150 (μM)” value was “**** (**** = 1 μM ≤ SC150 < 10 μM)”. `CN1CC[C@H](Nc2cccc3c2cc(-c2nnc(CNc4cccc(S(C)(=O)=O)c4)o2)n3CC(F)(F)F)[C@H](F)C1` (racemic) [Compound 122B, (+/−)-N-[(3R,4S)-3-fluoro-1-methylpiperidin-4-yl]-2-(5-{[(3-methanesulfonylphenyl)amino]methyl}-1,3,4-oxadiazol-2-yl)-1-(2,2,2-trifluoroethyl)-1H-indol-4-amine] was tested, and the “Y220C SC150 (μM)” value was “** (** = 0.1 μM ≤ SC150 < 0.5 μM)”. With `COc1cc(S(C)(=O)=O)ccc1NCc1nnc(-c2cc3c(N[C@H]4CCN(C)C[C@@H]4F)cccc3n2CC(F)(F)F)o1` (racemic) [Compound 123B, (+/−)-N-[(3R,4R)-3-fluoro-1-methylpiperidin-4-yl]-2-(5-{[(4-methanesulfonyl-2-methoxyphenyl)amino]methyl}-1,3,4-oxadiazol-2-yl)-1-(2,2,2-trifluoroethyl)-1H-indol-4-amine] the “Y220C SC150 (μM)” value was “** (** = 0.1 μM ≤ SC150 < 0.5 μM)”. In the case of `CN1CCC(Nc2cccc3c2cc(-c2noc(CNC(=O)[C@@H]4C[C@H]4F)n2)n3CC(F)(F)F)CC1` (racemic) [Compound 145B, (1S,2R)-2-fluoro-N-[(3-{4-[(1-methylpiperidin-4-yl)amino]-1-(2,2,2-trifluoroethyl)-1H-indol-2-yl}-1,2,4-oxadiazol-5-yl)methyl]cyclopropane-1-carboxamide], the “Y220C SC150 (μM)” value is reported as “* (* = 0 μM ≤ SC150 < 0.1 μM)”. For `CN1CCC(Nc2cccc3c2cc(-c2noc(CNC(=O)[C@@H]4C[C@@H]4F)n2)n3CC(F)(F)F)CC1` (racemic) [Compound 147B, (1S,2S)-2-fluoro-N-[(3-{4-[(1-methylpiperidin-4-yl)amino]-1-(2,2,2-trifluoroethyl)-1H-indol-2-yl}-1,2,4-oxadiazol-5-yl)methyl]cyclopropane-1-carboxamide], the “Y220C SC150 (μM)” value was “* (* = 0 μM ≤ SC150 < 0.1 μM)”. With `CN1CCC(Nc2cccc3c2cc(-c2noc(CNC(=O)[C@@H]4C[C@H]4c4ccccc4)n2)n3CC(F)(F)F)CC1` (racemic) [Compound 156B, (+/−)-(1R,2R)—N-[(3-{4-[(1-methylpiperidin-4-yl)amino]-1-(2,2,2-trifluoroethyl)-1H-indol-2-yl}-1,2,4-oxadiazol-5-yl)methyl]-2-phenylcyclopropane-1-carboxamide] the “Y220C SC150 (μM)” value was “* (* = 0 μM ≤ SC150 < 0.1 μM)”. For `C[C@@H]1C[C@H]1C(=O)NCc1nc(-c2cc3c(NC4CCN(C)CC4)cccc3n2CC(F)(F)F)no1` (racemic) [Compound 157B, (+/−)-(1R,2R)-2-methyl-N-[(3-{4-[(1-methylpiperidin-4-yl)amino]-1-(2,2,2-trifluoroethyl)-1H-indol-2-yl}-1,2,4-oxadiazol-5-yl)methyl]cyclopropane-1-carboxamide], the “Y220C SC150 (μM)” value was “* (* = 0 μM ≤ SC150 < 0.1 μM)”. In the case of `C[C@H]1C[C@H]1C(=O)NCc1nc(-c2cc3c(NC4CCN(C)CC4)cccc3n2CC(F)(F)F)no1` (racemic) [Compound 158B, (+/−)-(1R,2S)-2-methyl-N-[(3-{4-[(1-methylpiperidin-4-yl)amino]-1-(2,2,2-trifluoroethyl)-1H-indol-2-yl}-1,2,4-oxadiazol-5-yl)methyl]cyclopropane-1-carboxamide], the “Y220C SC150 (μM)” value is reported as “* (* = 0 μM ≤ SC150 < 0.1 μM)”. `O=C(NCc1nc(-c2cc3c(NC4CCNC4)cccc3n2CC(F)(F)F)no1)C1CC1` (racemic) [Compound 167B, (+/−)-N-[(3-{4-[(pyrrolidin-3-yl)amino]-1-(2,2,2-trifluoroethyl)-1H-indol-2-yl}-1,2,4-oxadiazol-5-yl)methyl]cyclopropanecarboxamide] was tested, and the “Y220C SC150 (μM)” value was “* (* = 0 μM ≤ SC150 < 0.1 μM)”. `CN1CCC(Nc2cccc3c2cc(-c2noc(CNC(=O)C4CC4)n2)n3CC(F)(F)F)C1` (racemic) [Compound 169B, (+/−)-N-[(3-{4-[(1-methylpyrrolidin-3-yl)amino]-1-(2,2,2-trifluoroethyl)-1H-indol-2-yl}-1,2,4-oxadiazol-5-yl)methyl]cyclopropanecarboxamide] was tested, and the “Y220C SC150 (μM)” value was “* (* = 0 μM ≤ SC150 < 0.1 μM)”. For `CN1CC[C@@H](Nc2cccc3c2cc(-c2noc(CNC(=O)C4CC4)n2)n3CC(F)(F)F)[C@@H](F)C1` (racemic) [Compound 171B, (+/−)-N-{[3-(4-{[(3R,4S)-3-fluoro-1-methylpiperidin-4-yl]amino}-1-(2,2,2-trifluoroethyl)-1H-indol-2-yl)-1,2,4-oxadiazol-5-yl]methyl}cyclopropanecarboxamide], the “Y220C SC150 (μM)” value was “* (* = 0 μM ≤ SC150 < 0.1 μM)”. For `CN1CC[C@@H](Nc2cccc3c2cc(-c2noc(CNC(=O)c4ccccc4)n2)n3CC(F)(F)F)[C@@H](F)C1` (racemic) [Compound 172B, (+/−)-N-{[3-(4-{[(3R,4S)-3-fluoro-1-methylpiperidin-4-yl]amino}-1-(2,2,2-trifluoroethyl)-1H-indol-2-yl)-1,2,4-oxadiazol-5-yl]methyl}benzamide], the “Y220C SC150 (μM)” value was “* (* = 0 μM ≤ SC150 < 0.1 μM)”. In the case of `CN1CC[C@@H](Nc2cccc3c2cc(-c2noc(CNC(=O)c4cccs4)n2)n3CC(F)(F)F)[C@@H](F)C1` (racemic) [Compound 175B, (+/−)-N-{[3-(4-{[(3R,4S)-3-fluoro-1-methylpiperidin-4-yl]amino}-1-(2,2,2-trifluoroethyl)-1H-indol-2-yl)-1,2,4-oxadiazol-5-yl]methyl}thiophene-2-carboxamide], the “Y220C SC150 (μM)” value is reported as “* (* = 0 μM ≤ SC150 < 0.1 μM)”. With `CN1CC[C@@H](Nc2cccc3c2cc(-c2noc(CNC(=O)c4ccsc4)n2)n3CC(F)(F)F)[C@@H](F)C1` (racemic) [Compound 176B, (+/−)-N-{[3-(4-{[(3R,4S)-3-fluoro-1-methylpiperidin-4-yl]amino}-1-(2,2,2-trifluoroethyl)-1H-indol-2-yl)-1,2,4-oxadiazol-5-yl]methyl}thiophene-3-carboxamide] the “Y220C SC150 (μM)” value was “* (* = 0 μM ≤ SC150 < 0.1 μM)”. For `CN1CC[C@@H](Nc2cccc3c2cc(-c2noc(CNc4ccc(S(C)(=O)=O)cc4)n2)n3CC(F)(F)F)[C@@H](F)C1` (racemic) [Compound 177B, (+/−)-N-[(3R,4S)-3-fluoro-1-methylpiperidin-4-yl]-2-(5-{[(4-methanesulfonylphenyl)amino]methyl}-1,2,4-oxadiazol-3-yl)-1-(2,2,2-trifluoroethyl)-1H-indol-4-amine], the “Y220C SC150 (μM)” value was “* (* = 0 μM ≤ SC150 < 0.1 μM)”. `CCn1ccc(C(=O)NCc2nc(-c3cc4c(N[C@@H]5CCN(C)C[C@@H]5F)cccc4n3CC(F)(F)F)no2)c1` (racemic) [Compound 179B, (+/−)-1-ethyl-N-{[3-(4-{[(3R,4S)-3-fluoro-1-methylpiperidin-4-yl]amino}-1-(2,2,2-trifluoroethyl)-1H-indol-2-yl)-1,2,4-oxadiazol-5-yl]methyl}-1H-pyrrole-3-carboxamide] was tested, and the “Y220C SC150 (μM)” value was “* (* = 0 μM ≤ SC150 < 0.1 μM)”.
